According to US12065442B2, “Tropomyosin receptor kinase (TRK) degradation compounds and methods of use” (Cullgen (Shanghai), Inc., priority 2018, dated 2024):

System: KM12 cells
Experiment: Cell viability assay (CellTiter-Glo) in KM12 cells
Assay type: cell-based
Conditions: Homo sapiens, 72 h; Table 2; KM12 cell viability, CellTiter-Glo, 3 days; read-out: IC50

SMILES | IC50
Cc1ncsc1-c1ccc(CNC(=O)[C@@H]2C[C@@H](O)CN2C(=O)[C@@H](NC(=O)CCCCC(=O)N2CCN(c3ccc(C(=O)Nc4n[nH]c5ccc(Cc6cc(F)cc(F)c6)cc45)c(NC4CCOCC4)c3)CC2)C(C)(C)C)cc1 [CPD-044, (2S,4R)-1-((S)-2-(6-(4-(4-((5-(3,5-difluorobenzyl)-1H-indazol-3-yl)carbamoyl)-3-((tetrahydro-2H-pyran-4-yl)amino)phenyl)piperazin-1-yl)-6-oxohexanamido)-3,3-dimethylbutanoyl)-4-hydroxy-N-(4-(4-methylthiazol-5-yl)benzyl)pyrrolidine-2-carboxamide] | 73 nM
Cc1ncsc1-c1ccc(CNC(=O)[C@@H]2C[C@@H](O)CN2C(=O)[C@@H](NC(=O)COCCOCCOCCOCCOCC(=O)N2CCN(c3cccc(-c4cnc5ccc(N6CCC[C@@H]6c6cccc(F)c6)nn45)n3)CC2)C(C)(C)C)cc1 [CPD-003, (2S,4R)-1-((S)-2-(tert-butyl)-20-(4-(6-(6-((R)-2-(3-Fluorophenyl)pyrrolidin-1-yl)imidazo[1,2-b]pyridazin-3-yl)pyridin-2-yl)piperazin-1-yl)-4,20-dioxo-6,9,12,15,18-pentaoxa-3-azaicosanoyl)-4-hydroxy-N-(4-(4-methylthiazol-5-yl)benzyl)pyrrolidine-2-carboxamide] | > 1000 nM
O=C1CCC(N2C(=O)c3cccc(NCC(=O)N4CCN(c5cccc(-c6cnc7ccc(N8CCC[C@@H]8c8cccc(F)c8)nn67)n5)CC4)c3C2=O)C(=O)N1 (stereo partly drawn) [CPD-023, 2-(2,6-Dioxopiperidin-3-yl)-4-((2-(4-(6-(6-((R)-2-(3-fluorophenyl)pyrrolidin-1-yl)imidazo[1,2-b]pyridazin-3-yl)pyridin-2-yl)piperazin-1-yl)-2-oxoethyl)amino)isoindoline-1,3-dione] | 14.9 nM

Same assay, conditions: Homo sapiens, 72 h; Table 3; KM12 cell viability, CellTiter-Glo, 3 days; read-out: IC50

SMILES | IC50
O=C1CCC(N2C(=O)c3ccc(NCCOCCC(=O)N4CCN(c5ccc(C(=O)Nc6n[nH]c7ccc(Cc8cc(F)cc(F)c8)cc67)c(NC6CCOCC6)c5)CC4)cc3C2=O)C(=O)N1 (centres unmarked) [TR-143] | 5.6 nM
O=C(CN1CCN(c2cccc(-c3cnc4ccc(N5CCC[C@@H]5c5cccc(F)c5)nn34)n2)CC1)NCCCCCCCNc1ccc2c(c1)C(=O)N(C1CCC(=O)NC1=O)C2=O (stereo partly drawn) [TR-126, N-(7-((2-(2,6-dioxopiperidin-3-yl)-1,3-dioxoisoindolin-5-yl)amino)heptyl)-2-(4-(6-(6-((R)-2-(3-fluorophenyl)pyrrolidin-1-yl)imidazo[1,2-b]pyridazin-3-yl)pyridin-2-yl)piperazin-1-yl)acetamide] | 12.5 nM
O=C(CN1CCN(c2ccc(C(=O)Nc3n[nH]c4ccc(Cc5cc(F)cc(F)c5)cc34)c(NC3CCOCC3)c2)CC1)NCCCCCCCCNc1ccc2c(c1)C(=O)N(C1CCC(=O)NC1=O)C2=O (centres unmarked) [TR-159, N-(5-(3,5-Difluorobenzyl)-1H-indazol-3-yl)-4-(4-(2-((8-((2-(2,6-dioxopiperidin-3-yl)-1,3-dioxoisoindolin-5-yl)amino)octyl)amino)-2-oxoethyl)piperazin-1-yl)-2-((tetrahydro-2H-pyran-4-yl)amino)benzamide] | 30.4 nM
O=C1CCC(N2C(=O)c3ccc(NCCOCCOCCOCCOCCC(=O)N4CCN(c5ccc(C(=O)Nc6n[nH]c7ccc(Cc8cc(F)cc(F)c8)cc67)c(NC6CCOCC6)c5)CC4)cc3C2=O)C(=O)N1 (centres unmarked) [TR-140, N-(5-(3,5-Difluorobenzyl)-1H-indazol-3-yl)-4-(4-(1-((2-(2,6-dioxopiperidin-3-yl)-1,3-dioxoisoindolin-5-yl)amino)-3,6,9,12-tetraoxapentadecan-15-oyl)piperazin-1-yl)-2-((tetrahydro-2H-pyran-4-yl)amino)benzamide] | 1.6 nM
O=C1CCC(N2C(=O)c3ccc(NCCCCCCC(=O)N4CCN(c5ccc(C(=O)Nc6n[nH]c7ccc(Cc8cc(F)cc(F)c8)cc67)c(NC6CCOCC6)c5)CC4)cc3C2=O)C(=O)N1 (centres unmarked) [TR-139, N-(5-(3,5-Difluorobenzyl)-1H-indazol-3-yl)-4-(4-(7-((2-(2,6-dioxopiperidin-3-yl)-1,3-dioxoisoindolin-5-yl)amino)heptanoyl)piperazin-1-yl)-2-((tetrahydro-2H-pyran-4-yl)amino)benzamide] | 27.1 nM
